Experimental data: patent publication US10927141B2 (priority 2018, dated 2021)
Where two headings read alike, the source gives them in different places.

What was measured:
[1] = assay type: physicochemical; details: 1 w
Description: For each salt, approximately 5 mg compound was added into an 8 mL glass vial with a multi-hole aluminum foil cap, and kept at 60° C., 40° C./75% RH for 1 week. […] Appearance by visual observation were recorded followed by purity assessment and XPRD data collection on the residual solids.

[2] = assay type: physicochemical; details: 37° C., 24 h
[3] = Dynamic vapor sorption (DVS), gravimetric moisture sorption; assay type: physicochemical; details: at 80% Relative Humidity, 25° C.
Description: Dynamic Vapor Sorption (DVS) were collected conducted using an SMS DVS Advantage 1 system. For each sample analyzed approximately 10 mg of material was transferred into the DVS instrument and recorded the weight change with respect to the atmospheric humidity at 25° C. using the following parameters: Equilibrium dm/dt: 0.01%/min, (for min: 10 min and max: 180 min); drying setting were 0% RH for 120 min; RH (%) measurement step at 10% and RH (%) measurement step scope of 0-90-0%.

[4] = assay type: physicochemical
[5] = Bulk density for salts of Compound 1; assay type: physicochemical; details: Form A
[6] = 40° C./75% RH, listed as Hydrobromide (Form A)
[7] = 60° C., listed as Hydrobromide (Form A)
[8] = 1.2 million lux-hrs, listed as Hydrobromide (Form A)
[9] = Dark control, listed as Hydrobromide (Form A)
[10] = 40° C./75% RH, listed as Hydrobromide (Form C)
[11] = 60° C., listed as Hydrobromide (Form C)
[12] = 1.2 million lux-hrs, listed as Hydrobromide (Form C)
[13] = Dark control, listed as Hydrobromide (Form C)

## Br.COC[C@@]1(O)CC[C@@]2(C)[C@@H](CC[C@@H]3[C@@H]2CC[C@]2(C)[C@@H](C(=O)Cn4ccnc4)CC[C@@H]32)C1 [Compound 1 HBr (Form A)]
[1]; [6]
  Final purity: 98.2
  XRPD pattern: Form A
[1]; [7]
  Final purity: 98.0
  XRPD pattern: Form A
[2]; FaSSIF (original pH = 6.51), listed as Hydrobromide (Form A)
  Final pH: 4.11
[2]; FeSSIF (original pH = 4.99), listed as Hydrobromide (Form A)
  Final pH: 5.01
[2]; SGF (original pH = 1.82)
  Final pH: 1.91
[3]
  gravimetric moisture sorption: about 1.1 % (by weight)
[4]; [8]
  Final purity: 98.2
  XRPD pattern: Form A
[4]; [9]
  Final purity: 97.9
  XRPD pattern: Form A

## O=C(O)C(O)C(O)C(=O)O (centres unmarked) [Tartrate]
[5]
  Bulk Density: 0.13 g/mL
  Tapped Density: 0.32 g/mL

## O=C(O)CC(O)(CC(=O)O)C(=O)O [Citrate]
[5]
  Bulk Density: 0.49 g/mL
  Tapped Density: 0.70 g/mL

## Br.COC[C@@]1(O)CC[C@@]2(C)[C@@H](CC[C@@H]3[C@@H]2CC[C@]2(C)[C@@H](C(=O)Cn4ccnc4)CC[C@@H]32)C1 [Compound 1 HBr (Form C)]
[1]; [10]
  Final purity: 98.4
  XRPD pattern: Form C + B
[1]; [11]
  Final purity: 98.1
  XRPD pattern: Form C + B
[2]; FaSSIF (original pH = 6.51), listed as Hydrobromide (Form C)
  Final pH: 4.90
[2]; FeSSIF (original pH = 4.99), listed as Hydrobromide (Form C)
  Final pH: 5.05
[2]; SGF (original pH = 1.82), listed as Hydrobromide (Form C)
  Final pH: 1.99
[3]
  gravimetric moisture sorption: about 0.25 % (by weight)
[4]; [12]
  Final purity: 98.1
  XRPD pattern: Form C + B
[4]; [13]
  Final purity: 98.0
  XRPD pattern: Form C + B

## COCC1(O)CCC2(C)C(CCC3C2CCC2(C)C(C(=O)Cn4ccnc4)CCC32)C1.O=P(O)(O)O (centres unmarked) [Phosphate]
[5]
  Bulk Density: 0.15 g/mL
  Tapped Density: 0.33 g/mL

## Br.COC[C@@]1(O)CC[C@@]2(C)[C@@H](CC[C@@H]3[C@@H]2CC[C@]2(C)[C@@H](C(=O)Cn4ccnc4)CC[C@@H]32)C1 [HBr]
[5]
  Bulk Density: 0.27 g/mL
  Tapped Density: 0.50 g/mL
